From ChEMBL document CHEMBL1671689, “Activity of ceftaroline against recent emerging serotypes of Streptococcus pneumoniae in the United States” (2010)
In brackets after ≈: the same amount, converted by molar mass.

Experiments:
Assay type in all cases: functional
[1] = test system: Streptococcus pneumoniae; test: Antimicrobial activity against Streptococcus pneumoniae serotype 3 by broth microdilution method
[2] = test system: Streptococcus pneumoniae; test: Antimicrobial activity against multiple drug resistant Streptococcus pneumoniae serotype 19A by broth microdilution method
[3] = test system: Streptococcus pneumoniae; test: Antimicrobial activity against Streptococcus pneumoniae serotype 7F by broth microdilution method
[4] = test system: Streptococcus pneumoniae; test: Antimicrobial activity against Streptococcus pneumoniae serotype 6C by broth microdilution method
[5] = test system: Streptococcus pneumoniae; test: Antimicrobial activity against Streptococcus pneumoniae serotype 35B by broth microdilution method
[6] = test system: Streptococcus pneumoniae; test: Antimicrobial activity against Streptococcus pneumoniae serotype 19A by broth microdilution method
[7] = test system: Streptococcus pneumoniae; test: Antimicrobial activity against Streptococcus pneumoniae serotype 11A by broth microdilution method
[8] = test system: Streptococcus pneumoniae; test: Antimicrobial activity against multiple drug resistant Streptococcus pneumoniae serotype 6B by broth microdilution method
[9] = test system: Streptococcus pneumoniae; test: Antimicrobial activity against multiple drug resistant Streptococcus pneumoniae serotype 19F by broth microdilution method
[10] = test system: Streptococcus pneumoniae; test: Antimicrobial activity against Streptococcus pneumoniae serotype 11A assessed as percent susceptible isolates by broth microdilution method
[11] = test system: Streptococcus pneumoniae; test: Antimicrobial activity against Streptococcus pneumoniae serotype 19F assessed as percent susceptible isolates by broth microdilution method
[12] = test system: Streptococcus pneumoniae; test: Antimicrobial activity against Streptococcus pneumoniae serotype 19A assessed as percent susceptible isolates by broth microdilution method
[13] = test system: Streptococcus pneumoniae; test: Antimicrobial activity against Streptococcus pneumoniae serotype 7F assessed as percent susceptible isolates by broth microdilution method
[14] = test system: Streptococcus pneumoniae; test: Antimicrobial activity against Streptococcus pneumoniae serotype 23A assessed as percent susceptible isolates by broth microdilution method
[15] = test system: Streptococcus pneumoniae; test: Antimicrobial activity against Streptococcus pneumoniae serotype 23B assessed as percent susceptible isolates by broth microdilution method
[16] = test system: Streptococcus pneumoniae; test: Antimicrobial activity against Streptococcus pneumoniae serotype 6C assessed as percent susceptible isolates by broth microdilution method
[17] = test system: Streptococcus pneumoniae; test: Antimicrobial activity against Streptococcus pneumoniae serotype 22F assessed as percent susceptible isolates by broth microdilution method
[18] = test system: Streptococcus pneumoniae; test: Antimicrobial activity against multiple drug resistant Streptococcus pneumoniae serotype 19A assessed as percent susceptible isolates by broth microdilution method
[19] = test system: Streptococcus pneumoniae; test: Antimicrobial activity against Streptococcus pneumoniae serotype 3 assessed as percent susceptible isolates by broth microdilution method
[20] = test system: Streptococcus pneumoniae; test: Antimicrobial activity against Streptococcus pneumoniae serotype 35B assessed as percent susceptible isolates by broth microdilution method
[21] = test system: Streptococcus pneumoniae; test: Antimicrobial activity against multiple drug resistant Streptococcus pneumoniae serotype 19F assessed as percent susceptible isolates by broth microdilution method
[22] = test system: Streptococcus pneumoniae; test: Antimicrobial activity against Streptococcus pneumoniae serotype 15A assessed as percent susceptible isolates by broth microdilution method
[23] = test system: Streptococcus pneumoniae; test: Antimicrobial activity against multiple drug resistant Streptococcus pneumoniae serotype 6B assessed as percent susceptible isolates by broth microdilution method

CCO/N=C(\C(=O)N[C@@H]1C(=O)N2C(C(=O)[O-])=C(Sc3nc(-c4cc[n+](C)cc4)cs3)CS[C@H]12)c1nsc(NP(=O)(O)O)n1 [CEFTAROLINE FOSAMIL]
MIC [1]: ≤ 0.008 µg/mL | MIC50 [1]: ≤ 0.008 µg/mL | MIC90 [1]: ≤ 0.008 µg/mL | MIC50 [2]: 0.25 µg/mL (≈ 0.365 µM) | MIC90 [2]: 0.25 µg/mL (≈ 0.365 µM) | MIC [3]: ≤ 0.008 µg/mL | MIC50 [3]: ≤ 0.008 µg/mL | MIC90 [3]: 0.015 µg/mL (≈ 0.0219 µM) | MIC50 [4]: 0.015 µg/mL (≈ 0.0219 µM) | MIC90 [4]: 0.06 µg/mL (≈ 0.0876 µM) | MIC50 [5]: 0.12 µg/mL (≈ 0.175 µM) | MIC90 [5]: 0.12 µg/mL (≈ 0.175 µM) | MIC50 [6]: 0.12 µg/mL (≈ 0.175 µM) | MIC90 [6]: 0.25 µg/mL (≈ 0.365 µM) | MIC50 [7]: 0.06 µg/mL (≈ 0.0876 µM) | MIC90 [7]: 0.06 µg/mL (≈ 0.0876 µM) | MIC50 [8]: 0.25 µg/mL (≈ 0.365 µM) | MIC90 [8]: 0.25 µg/mL (≈ 0.365 µM) | MIC50 [9]: 0.25 µg/mL (≈ 0.365 µM) | MIC90 [9]: 0.25 µg/mL (≈ 0.365 µM)

CO/N=C(\C(=O)N[C@@H]1C(=O)N2C(C(=O)O)=C(CSc3nc(=O)c(O)nn3C)CS[C@H]12)c1csc(N)n1 [CEFTRIAXONE]
Activity [10]: 98% | MIC [1]: ≤ 0.25 µg/mL | MIC50 [1]: ≤ 0.25 µg/mL | MIC90 [1]: ≤ 0.25 µg/mL | Activity [11]: 65.5% | Activity [12]: 65.6% | Activity [13]: 98.3% | Activity [14]: 100% | Activity [15]: 97% | Activity [16]: 100% | MIC50 [2]: 2 µg/mL (≈ 3.61 µM) | MIC90 [2]: 4 µg/mL (≈ 7.21 µM) | Activity [17]: 100% | MIC [3]: ≤ 0.25 µg/mL | MIC50 [3]: ≤ 0.25 µg/mL | MIC90 [3]: ≤ 0.25 µg/mL | MIC50 [4]: 0.25 µg/mL (≈ 0.451 µM) | MIC90 [4]: 0.25 µg/mL (≈ 0.451 µM) | MIC50 [5]: 1 µg/mL (≈ 1.8 µM) | MIC90 [5]: 1 µg/mL (≈ 1.8 µM) | Activity [18]: 43.9% | MIC50 [6]: 1 µg/mL (≈ 1.8 µM) | MIC90 [6]: 2 µg/mL (≈ 3.61 µM) | Activity [19]: 100% | Activity [20]: 98.3% | Activity [21]: 43.9% | MIC [7]: ≤ 0.25 µg/mL | MIC50 [7]: ≤ 0.25 µg/mL | MIC90 [7]: ≤ 0.25 µg/mL | Activity [22]: 100% | Activity [23]: 43.9% | MIC50 [8]: 2 µg/mL (≈ 3.61 µM) | MIC90 [8]: 4 µg/mL (≈ 7.21 µM) | MIC50 [9]: 2 µg/mL (≈ 3.61 µM) | MIC90 [9]: 4 µg/mL (≈ 7.21 µM)

CO/N=C(\C(=O)N[C@@H]1C(=O)N2C(C(=O)O)=C(COC(N)=O)CS[C@H]12)c1ccco1 [CEFUROXIME]
Activity [10]: 95.2% | MIC [1]: ≤ 1 µg/mL | MIC50 [1]: ≤ 1 µg/mL | MIC90 [1]: ≤ 1 µg/mL | Activity [11]: 20.7% | Activity [12]: 36.1% | Activity [13]: 9.6% | Activity [14]: 96.4% | Activity [15]: 96.8% | Activity [16]: 47.5% | MIC50 [2]: 8 µg/mL (≈ 18.9 µM) | Activity [17]: 100% | MIC [3]: ≤ 1 µg/mL | MIC50 [3]: ≤ 1 µg/mL | MIC90 [3]: ≤ 1 µg/mL | MIC50 [4]: 2 µg/mL (≈ 4.71 µM) | MIC90 [4]: 4 µg/mL (≈ 9.43 µM) | MIC50 [5]: 4 µg/mL (≈ 9.43 µM) | MIC90 [5]: 4 µg/mL (≈ 9.43 µM) | Activity [18]: 0% | MIC50 [6]: 8 µg/mL (≈ 18.9 µM) | MIC90 [6]: > 8 µg/mL | Activity [19]: 100% | Activity [20]: 9.6% | Activity [21]: 0% | MIC [7]: ≤ 1 µg/mL | MIC50 [7]: ≤ 1 µg/mL | MIC90 [7]: ≤ 1 µg/mL | Activity [22]: 91.4% | Activity [23]: 0% | MIC50 [8]: 8 µg/mL (≈ 18.9 µM) | MIC90 [8]: > 8 µg/mL | MIC50 [9]: 8 µg/mL (≈ 18.9 µM) | MIC90 [9]: > 8 µg/mL

CCC[C@@H]1C[C@@H](C(=O)N[C@@H]([C@H]2O[C@H](SC)[C@H](O)[C@@H](O)[C@H]2O)[C@H](C)Cl)N(C)C1 [CLINDAMYCIN]
Activity [10]: 95.9% | MIC50 [1]: ≤ 0.25 µg/mL | MIC90 [1]: ≤ 0.25 µg/mL | Activity [11]: 31% | Activity [12]: 43.4% | Activity [13]: 100% | Activity [14]: 81.8% | Activity [15]: 100% | Activity [16]: 97.7% | MIC [2]: > 1 µg/mL | Activity [17]: 100% | MIC [3]: ≤ 0.25 µg/mL | MIC50 [3]: ≤ 0.25 µg/mL | MIC90 [3]: ≤ 0.25 µg/mL | MIC50 [4]: ≤ 0.25 µg/mL | MIC90 [4]: ≤ 0.25 µg/mL | MIC [5]: ≤ 0.25 µg/mL | MIC50 [5]: ≤ 0.25 µg/mL | MIC90 [5]: ≤ 0.25 µg/mL | Activity [18]: 0% | MIC50 [6]: > 2 µg/mL | MIC90 [6]: > 2 µg/mL | Activity [19]: 96.3% | Activity [20]: 100% | Activity [21]: 0% | MIC50 [7]: ≤ 0.25 µg/mL | MIC90 [7]: ≤ 0.25 µg/mL | Activity [22]: 10.5% | Activity [23]: 0% | MIC50 [8]: > 2 µg/mL | MIC90 [8]: > 2 µg/mL | MIC50 [9]: > 2 µg/mL | MIC90 [9]: > 2 µg/mL

CC(=O)NC[C@H]1CN(c2ccc(N3CCOCC3)c(F)c2)C(=O)O1 [LINEZOLID]
Activity [10]: 100% | MIC50 [1]: 0.5 µg/mL (≈ 1.48 µM) | MIC90 [1]: 1 µg/mL (≈ 2.96 µM) | Activity [11]: 100% | Activity [12]: 100% | Activity [13]: 100% | Activity [14]: 100% | Activity [15]: 100% | Activity [16]: 100% | MIC50 [2]: 0.5 µg/mL (≈ 1.48 µM) | MIC90 [2]: 1 µg/mL (≈ 2.96 µM) | Activity [17]: 100% | MIC50 [3]: 0.5 µg/mL (≈ 1.48 µM) | MIC90 [3]: 1 µg/mL (≈ 2.96 µM) | MIC50 [4]: 1 µg/mL (≈ 2.96 µM) | MIC90 [4]: 1 µg/mL (≈ 2.96 µM) | MIC50 [5]: 1 µg/mL (≈ 2.96 µM) | MIC90 [5]: 1 µg/mL (≈ 2.96 µM) | MIC50 [6]: 0.5 µg/mL (≈ 1.48 µM) | MIC90 [6]: 1 µg/mL (≈ 2.96 µM) | Activity [19]: 100% | Activity [20]: 100% | MIC50 [7]: 1 µg/mL (≈ 2.96 µM) | MIC90 [7]: 1 µg/mL (≈ 2.96 µM) | Activity [22]: 100% | MIC50 [8]: 0.5 µg/mL (≈ 1.48 µM) | MIC90 [8]: 1 µg/mL (≈ 2.96 µM) | MIC50 [9]: 0.5 µg/mL (≈ 1.48 µM) | MIC90 [9]: 1 µg/mL (≈ 2.96 µM)

COc1c(N2C[C@@H]3CCCN[C@@H]3C2)c(F)cc2c(=O)c(C(=O)O)cn(C3CC3)c12 [MOXIFLOXACIN]
Activity [10]: 100% | MIC [1]: ≤ 0.5 µg/mL | MIC50 [1]: ≤ 0.5 µg/mL | MIC90 [1]: ≤ 0.5 µg/mL | Activity [11]: 96.6% | Activity [12]: 100% | Activity [13]: 100% | Activity [14]: 100% | Activity [15]: 97% | Activity [16]: 100% | Activity [17]: 100% | MIC [3]: ≤ 0.5 µg/mL | MIC50 [3]: ≤ 0.5 µg/mL | MIC90 [3]: ≤ 0.5 µg/mL | MIC [4]: ≤ 0.5 µg/mL | MIC50 [4]: ≤ 0.5 µg/mL | MIC90 [4]: ≤ 0.5 µg/mL | MIC [5]: ≤ 0.5 µg/mL | MIC50 [5]: ≤ 0.5 µg/mL | MIC90 [5]: ≤ 0.5 µg/mL | Activity [18]: 99.2% | MIC [6]: ≤ 0.5 µg/mL | MIC50 [6]: ≤ 0.5 µg/mL | MIC90 [6]: ≤ 0.5 µg/mL | Activity [19]: 100% | Activity [20]: 100% | Activity [21]: 99.2% | MIC [7]: ≤ 0.5 µg/mL | MIC50 [7]: ≤ 0.5 µg/mL | MIC90 [7]: ≤ 0.5 µg/mL | Activity [22]: 100% | Activity [23]: 99.2%
